Consider 5 compounds from patent publication US8519006B2, “Use of sphingosine-1 phosphate (S1P) receptor agonists for the treatment of brain degenerative diseases” (Novartis AG, priority 2003, dated 2013).

Series [1] deals with human monocytes. Description: Monocyte chemotaxis toward Aβ (48-blindwell microchemotaxis chamber). In kind it is cell-based.
In series [2] the test system is human monocytes. Description: Monocyte chemotaxis toward Aβ precursor protein (Aβ-PP). In kind it is cell-based.
Series [3] can be described thus: Acute toxicity (LD50). The settings on record: monkey, in vivo, po.
In series [4] the test system is subjects exhibiting mild to moderate Alzheimer dementia. Description: Clinical trial, EEG and psychometric tests. In kind it is in vivo, human. The settings on record: ca. 0.25 to ca. 10 mg/p.o. once or divided 2 or 3×; tests at 60, 120 and 180 minutes.
A short description of series [5]: Acute toxicity (LD50). The settings on record: rat, in vivo, po.
[6] abbreviates: monocytes pre-incubated with enzyme blocker, washed, chemotaxis toward Aβ (1 pmol/l), GFX 500 nmol/l, IBMX 10 ng/ml, Tyrphostin-23 10 ng/ml, WTN 10 nmol/l, CTX 1 nmol/l, PTX 1 nmol/l, Medium 1.786 (0.078).
Setting [7] is: monocytes pre-incubated with enzyme blocker, washed, chemotaxis toward Aβ-PP (1 pmol/l), GFX 500 nmol/l, IBMX 10 ng/ml, Tyrphostin-23 10 ng/ml, WTN 10 nmol/l, CTX 1 nmol/l, PTX 1 nmol/l, Medium 1.639 (0.076).

Like-named read-outs stand apart in the source and are kept apart here. Some results are limits rather than exact numbers.

As to `COC[C@H]1OC(=O)c2coc3c2[C@@]1(C)C1=C(C3=O)[C@@H]2CCC(=O)[C@@]2(C)C[C@H]1OC(C)=O` [WTN], in the series on human monocytes [1] (setting [6]), the “Chemotaxis Index Aβ Mean (+/−SEM)” value is 1.023 (0.05). Further, in the series on human monocytes [2] (setting [7]), the “Chemotaxis Index Aβ-PP Mean (+/−SEM)” value is 1.115 (0.08).

Consider `N#CC(C#N)=Cc1ccc(O)c(O)c1` [Tyrphostin-23], for which the “Chemotaxis Index Aβ Mean (+/−SEM)” value in the series on human monocytes [1] is listed as 1.435 (0.04). Further, the “Chemotaxis Index Aβ-PP Mean (+/−SEM)” value in the series on human monocytes [2] was 1.398 (0.07).

As for `CN(C)CCCn1cc(C2=C(c3c[nH]c4ccccc34)C(=O)NC2=O)c2ccccc21` [GFX], the “Chemotaxis Index Aβ Mean (+/−SEM)” value with human monocytes [1] (setting [6]) is 1.143 (0.08). Further, the “Chemotaxis Index Aβ-PP Mean (+/−SEM)” value with human monocytes [2] (setting [7]) is 1.098 (0.10).

As a reminder, the LD50 is the dose at which mortality reaches 50%. Read a low LD50 as a more toxic substance. As for `CCCCCCCCc1ccc(CCC(N)(CO)CO)cc1.Cl` [Compound A, 2-amino-2-[2-(4-octylphenyl)ethyl]propane-1,3-diol], the LD50 in “Acute toxicity (LD50) [3]” and in “Acute toxicity (LD50) [5]” was over 10 mg/kg in each case. The “Chemotaxis Mean (+/−SEM)” value in the series on human monocytes [1] (chemotaxis index, monocytes incubated 20 min with 2 ng/ml, washed, chemotaxis toward Aβ [1 pmol/L], Medium 1.825 (0.14)) was 1.077 (0.18). Further, in series [4], the “condition as evidenced by EEG results and psychometric tests compared with placebo” value was “improved condition”.

In the case of `CC(C)Cn1c(=O)n(C)c(=O)c2[nH]cnc21` [IBMX], the “Chemotaxis Index Aβ Mean (+/−SEM)” value with human monocytes [1] (setting [6]) is given as 1.234 (0.06). Besides, in the series on human monocytes [2] (setting [7]), the “Chemotaxis Index Aβ-PP Mean (+/−SEM)” value was 1.208 (0.09).
